Source: patent US9724312B2, “Agent for the prevention, improvement or treatment of retinal disease” (ROHTO PHARMACEUTICAL CO., LTD., priority 2012, dated 2017)

Experiments:
[1] = test system: rat models with glaucoma induced by NMDA; assay: Protective effect for retinal ganglion cells against nerve damage by NMDA (thickness of inner plexiform layer); type: in vivo
Description: In recent years the glutamate analogue NMDA (N-methyl-D-aspartate) has been widely reported to be one of causative agents of neurodegenerative diseases including Alzheimer's disease. In the ophthalmic field, NMDA is considered to be involved in optic nerve damage in glaucoma (Brain Research Bulletin, 81 (2010) 349-358). Accordingly, in this experiment rat models with glaucoma induced by NMDA were used to evaluate the neuroprotective effect of GGA.
To Sprague-Dawley (SD) rats, the all-trans form, the 5Z-mono-cis form and teprenone were separately pre-administered by oral administration (Test Example 1), intravitreal administration (Test Example 2) or ocular instillation administration (Test Example 3) and 5 μL of NMDA was administered into the vitreous body to induce nerve damage. For Test Example 2, a marketed therapeutic eye drop for glaucoma, AIPHAGAN (trade name), was intravitreally administered as a positive control once a day for five days. For each of Test Examples, a base not containing GGA or AIPHAGAN was administered as a control in the same manner as described above.
The dosage and regimen of Test Examples 1 to 3 are shown in Table 1 and the constitution of the base used in each tests are shown in Table 2.
Three days after administration of NMDA, the eyeballs were harvested, fixed with half Karnovsky's fixative for 24 hours, embedded in paraffin, thin sectioned and stained with hematoxylin-eosin (HE) to prepare histopathological sections. The histological sections were observed under an optical microscope and the thickness (μm) of the inner plexiform layer (IPL) of the retina was measured. From the thickness of the inner plexiform layer (IPL) of the retina, the neuroprotective effects of the test preparations were evaluated.

[2] = test system: rat-derived retinal ganglion cells (RGC); assay: Neurite outgrowth inducing effect in culture system of rat-derived retinal ganglion cells; type: cell-based; conditions: all-trans form content 3 μM, 48 h; FIG. 2 and 3; n=4, Tukey-Kramer
Description: The progress of visual impairment in glaucoma is associated with retinal ganglion cell (RGC) death due to blood flow failure occurring near the optic nerve (Folia Pharmacol. Jpn. 128, 255-258 (2006)). Accordingly, a culture system of rat-derived retinal neurons (Current protocols in Neuroscience 3.22.1-3.22.10, October 2010), which is widely used as one of study tools for optic nerve diseases such as a glaucoma, was used to examine the neurite outgrowth inducing effect of GGA.
Four-day-old Wistar rats (Japan SLC, Inc.) were euthanized by cervical dislocation and the eyeballs were harvested. The harvested eyeballs were immersed in 70% ethanol for 10 seconds and transferred to a Hanks' balanced salt solution containing 100 U/mL penicillin and 100 μg/mL streptomycin. Under a stereoscopic microscope, the corneas, irises, crystalline lenses, and vitreous bodies were removed using scissors for surgery and forceps, and the retinal tissue was harvested. The harvested retinal tissue was transferred to a centrifugation tube containing 5 mL of a basal medium for neuronal cells (Neurobasal, Invitrogen) containing 100 U/mL penicillin, 100 μg/mL streptomycin, a neural cell culture supplement (B27™-Supplement, Invitrogen), 1 μM L-cysteine (Kyowa Hakko Bio) and 15 U/mL papain (Sigma Aldrich) and incubated at 37° C. for 30 minutes. […]

`CC(=O)CC/C=C(\C)CC/C=C(\C)CC/C=C(\C)CCC=C(C)C` [all-trans form, (5E,9E,13E)-6,10,14,18-tetramethyl-5,9,13,17-nonadecatetrae n-2-one] was tested, and the “neuroprotective effect against nerve damage by NMDA compared with base (IPL thickness)” value ([1]; Test Example 1: oral 800 mg/kg, 2 days, once a day, NMDA 4 mM, FIG. 6, Dunnett) was “significant neuroprotective effects”, the “neuroprotective effect against nerve damage by NMDA compared with base (IPL thickness)” value ([1]; Test Example 2: intravitreal 0.05% w/v, 5 days, once a day, NMDA 40 mM, FIG. 7, Tukey-Kramer) was “significant neuroprotective effects” and the “neuroprotective effect compared with AIPHAGAN Ophthalmic Solution 0.1%” value ([1]; Test Example 2: intravitreal 0.05% w/v, 5 days, NMDA 40 mM, FIG. 7) was “significantly superior neuroprotective effect”. For the same compound, the “neuroprotective effect against nerve damage by NMDA compared with base (IPL thickness)” value ([1]; Test Example 3: ocular instillation 1% w/v, 5 days, 5 times per day, NMDA 4 mM, FIG. 9, t-test) was “significant neuroprotective effect” and the “neurite inducing effect (mean length of neurites of RGC) compared with GGA 6:4 and base” value [2] was “significant neurite inducing effect”.
